Test results from patent publication US20070287699A1, “ANTIVIRAL AGENTS” (ViroBay, Inc., priority 2006, published 2007).

System: HCV replicon RNA replication in human Huh7 hepatoma cells
Assay: HCV replicon assay (activity levels from either or both of HCV replicon assay 1, Huh7/Clone A RT-qPCR, and assay 2, Huh7 ET luc-ubi-neo/ET)
Assay type: cell-based, Hepatitis C virus (HCV)
Conditions: Hepatitis C virus, Huh-7, either or both HCV replicon assays: Huh7/Clone A, 48 hours, 72 hours, Luc activity or RT-PCR, read-out: inhibit HCV replication at IC50 levels or estimated IC50 levels
Summary of the method: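 Huh7/Clone A subgenomic replicon cells treated 48 h at 37° C. with 7 serial dilutions in triplicate (0.5% DMSO final). Replicon RNA measured by TaqMan RT-qPCR on the neo gene, normalized to RiboGreen total RNA; untreated cells set as 100% for IC50.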

`CC(C)(c1ccccc1)c1nc(-c2cn(Cc3ccc(C(F)(F)F)cc3)c3cc(N4CC[S+]([O-])CC4)c(F)cc3c2=O)no1` [Compound 129] and `CC(C)(c1ccccc1)c1nc(-c2cn(Cc3ccc(C(F)(F)F)cc3)c3cc(N4CCOCC4)c(F)cc3c2=O)no1` [Compound 146, 6-fluoro-7-morpholino-3-(5-(2-phenylpropan-2-yl)-1,2,4-oxadiazol-3-yl)-1-(4-(trifluoromethyl)benzyl)quinolin-4(1H)-one] cannot be ordered by IC50: less than 0.5 µM for the first, less than 0.5 µM for the second.

`COc1ccc(Cn2cc(-c3noc(C(C)(C)c4ccc(F)cc4)n3)c(=O)c3cc(F)c(N4CCOCC4)cc32)cc1` [Compound 130, 6-fluoro-3-(5-(2-(4-fluorophenyl)propan-2-yl)-1,2,4-oxadiazol-3-yl)-1-(4-methoxybenzyl)-7-morpholinoquinolin-4(1H)-one] and `CC(C)(c1ccc(F)cc1)c1nc(-c2cn(Cc3ccc(F)cc3)c3cc(N4CCS(=O)(=O)CC4)c(F)cc3c2=O)no1` [Compound 151, 7-(1,1-dioxo-thiomorpholine)-6-fluoro-3-(5-(2-(4-fluorophenyl)propan-2-yl)-1,2,4-oxadiazol-3-yl)-1-(4-(fluoro)benzyl)quinolin-4(1H)-one] cannot be ordered by IC50: less than 2 µM for the first, less than 10 µM for the second.

`C[C@@H]1CN(c2cc3c(cc2F)c(=O)c(-c2noc(C(C)(C)c4ccccc4)n2)cn3Cc2ccc(C(F)(F)F)cc2)C[C@H](C)N1` [Compound 131, 7-((3S,5R)-3,5-dimethylpiperazin-1-yl)-6-fluoro-3-(5-(2-phenylpropan-2-yl)-1,2,4-oxadiazol-3-yl)-1-(4-(trifluoromethyl)benzyl)quinolin-4(1H)-one] and `CC1CN(c2cc3c(cc2F)c(=O)c(-c2noc(C(C)(C)c4ccccc4)n2)cn3Cc2ccc(C(F)(F)F)cc2)CC(C)O1` (centres unmarked) [Compound 138, 7-(2,6-dimethylmorpholino)-6-fluoro-3-(5-(2-phenylpropan-2-yl)-1,2,4-oxadiazol-3-yl)-1-(4-(trifluoromethyl)benzyl)quinolin-4(1H)-one] cannot be ordered by IC50: less than 0.5 µM for the first, less than 2 µM for the second.

`CC(C)(c1ccc(F)cc1)c1nc(-c2cn(Cc3ccc(C(F)(F)F)cc3)c3cc(N4CCSCC4)c(F)cc3c2=O)no1` [Compound 132, 6-fluoro-3-(5-(2-(4-fluorophenyl)propan-2-yl)-1,2,4-oxadiazol-3-yl)-7-thiomorpholino-1-(4-(trifluoromethyl)benzyl)quinolin-4(1H)-one] and `C[C@@H]1CN(c2cc3c(cc2F)c(=O)c(-c2noc(C(C)(C)c4ccc(F)cc4)n2)cn3Cc2ccc(C(F)(F)F)cc2)C[C@H](C)N1` [Compound 133, 7-((3S,5R)-3,5-dimethylpiperazin-1-yl)-6-fluoro-3-(5-(2-(4-fluorophenyl)propan-2-yl)-1,2,4-oxadiazol-3-yl)-1-(4-(trifluoromethyl)benzyl)quinolin-4(1H)-one] cannot be ordered by IC50: less than 0.5 µM for the first, less than 0.5 µM for the second.

`C[C@@H](c1ccccc1)n1cc(-c2noc(C(C)(C)c3ccccc3)n2)c(=O)c2cc(F)c(N3CCOCC3)cc21` [Compound 143, (S)-6-fluoro-7-morpholino-1-(1-phenylethyl)-3-(5-(2-phenylpropan-2-yl)-1,2,4-oxadiazol-3-yl)quinolin-4(1H)-one] and `C[C@H](c1ccccc1)n1cc(-c2noc(C(C)(C)c3ccccc3)n2)c(=O)c2cc(F)c(N3CCOCC3)cc21` [Compound 145, (R)-6-fluoro-7-morpholino-1-(1-phenylethyl)-3-(5-(2-phenylpropan-2-yl)-1,2,4-oxadiazol-3-yl)quinolin-4(1H)-one] cannot be ordered by IC50: greater than 10 µM for the first, greater than 10 µM for the second.

Going from `CC(C)(c1ccccc1)c1nc(-c2cn(C(C)(C)c3ccccc3)c3cc(N4CCOCC4)c(F)cc3c2=O)no1` [Compound 144, 6-fluoro-7-morpholino-1-(2-phenylpropan-2-yl)-3-(5-(2-phenylpropan-2-yl)-1,2,4-oxadiazol-3-yl)quinolin-4(1H)-one] to `CC(C)(c1ccccc1)c1nnc(-c2cn(Cc3ccc(C(F)(F)F)cc3)c3cc(N4CCOCC4)c(F)cc3c2=O)o1` [Compound 167, 6-fluoro-7-morpholino-3-(5-(2-phenylpropan-2-yl)-1,3,4-oxadiazol-2-yl)-1-(4-(trifluoromethyl)benzyl)quinolin-4(1H)-one], the IC50 falls from greater than 10 µM to less than 2 µM.

`CN(C)c1cc2c(cc1F)c(=O)c(-c1noc(C(C)(C)c3ccccc3)n1)cn2Cc1ccc(C(F)(F)F)cc1` [Compound 152, 7-(dimethylamino)-6-fluoro-3-(5-(2-phenylpropan-2-yl)-1,2,4-oxadiazol-3-yl)-1-(4-(trifluoromethyl)benzyl)quinolin-4(1H)-one] and `CN(C)c1cc2c(cc1F)c(=O)c(-c1noc(C(C)(C)c3ccccc3)n1)cn2Cc1ccc(F)cc1` [Compound 154, 7-(dimethylamino)-6-fluoro-1-(4-fluorobenzyl)-3-(5-(2-phenylpropan-2-yl)-1,2,4-oxadiazol-3-yl)quinolin-4(1H)-one] cannot be ordered by IC50: less than 0.5 µM for the first, less than 2 µM for the second.

Compared with `CN(C)c1cc2c(cc1F)c(=O)c(-c1noc(C(C)(C)c3ccc(F)cc3)n1)cn2Cc1ccc(C(F)(F)F)cc1` [Compound 153, 7-(dimethylamino)-6-fluoro-3-(5-(2-(4-fluorophenyl)propan-2-yl)-1,2,4-oxadiazol-3-yl)-1-(4-(trifluoromethyl)benzyl)quinolin-4(1H)-one], `CC(C)(c1ccc(F)cc1)c1nc(-c2cn(Cc3ccc(F)cc3)c3cc(F)c(F)cc3c2=O)no1` [Compound 155, 6,7-difluoro-1-(4-fluorobenzyl)-3-(5-(2-(4-fluorophenyl)propan-2-yl)-1,2,4-oxadiazol-3-yl)quinolin-4(1H)-one] is higher in IC50: less than 2 µM for the first, greater than 10 µM for the second.

`CC(C)(c1ccc(F)cc1)c1nc(-c2cn(Cc3ccc(F)cc3)c3ccccc3c2=O)no1` [Compound 156, 1-(4-fluorobenzyl)-3-(5-(2-(4-fluorophenyl)propan-2-yl)-1,2,4-oxadiazol-3-yl)quinolin-4(1H)-one] and `CC(C)(c1ccc(F)cc1)c1noc(-c2cn(Cc3ccc(C(F)(F)F)cc3)c3cc(N4CCOCC4)c(F)cc3c2=O)n1` [Compound 173, 6-fluoro-3-(3-(2-(4-fluorophenyl)propan-2-yl)-1,2,4-oxadiazol-5-yl)-7-morpholino-1-(4-(trifluoromethyl)benzyl)quinolin-4(1H)-one] cannot be ordered by IC50: greater than 10 µM for the first, greater than 10 µM for the second.

Going from `CC(C)(c1ccc(F)cc1)c1nnc(-c2cn(Cc3ccc(C(F)(F)F)cc3)c3cc(N4CCOCC4)c(F)cc3c2=O)o1` [Compound 161, 6-fluoro-3-(5-(2-(4-fluorophenyl)propan-2-yl)-1,3,4-oxadiazol-2-yl)-7-morpholino-1-(4-(trifluoromethyl)benzyl)quinolin-4(1H)-one] to `O=c1c(-c2nc(Cc3ccc(F)cc3)no2)cn(Cc2ccc(C(F)(F)F)cc2)c2cc(N3CCOCC3)c(F)cc12` [Compound 172, 6-fluoro-3-(3-(4-fluorobenzyl)-1,2,4-oxadiazol-5-yl)-7-morpholino-1-(4-(trifluoromethyl)benzyl)quinolin-4(1H)-one], the IC50 rises from less than 2 µM to greater than 10 µM. The first is the more potent here.

`COc1cc2c(=O)c(-c3nnc(Cc4ccc(Cl)cc4)o3)cn(Cc3ccc(Cl)cc3)c2cc1OC` [Compound 162, 1-(4-chloro-benzyl)-3-[5-(4-chloro-benzyl)-[1,3,4]oxadiazol-2-yl]-6,7-dimethoxy-1H-quinolin-4-one] and `COc1cc2c(=O)c(-c3nc(Cc4ccccc4)no3)cn(Cc3ccc(Cl)cc3)c2cc1OC` [Compound 169, 3-(3-benzyl-[1,2,4]oxadiazol-5-yl)-1-(4-chloro-benzyl)-6,7-dimethoxy-1H-quinolin-4-one] cannot be ordered by IC50: greater than 10 µM for the first, greater than 10 µM for the second.

`COc1cc2c(=O)c(-c3nnc(Cc4ccc(Cl)cc4)o3)cn(CC3CCCCC3)c2cc1OC` [Compound 163, 3-[5-(4-chloro-benzyl)-[1,3,4]oxadiazol-2-yl]-1-cyclohexylmethyl-6,7-dimethoxy-1H-quinolin-4-one] and `COc1cc2c(=O)c(-c3nc(Cc4ccccc4)no3)cn(CC3CCCCC3)c2cc1OC` [Compound 170, 3-(3-benzyl-[1,2,4]oxadiazol-5-yl)-1-cyclohexylmethyl-6,7-dimethoxy-1H-quinolin-4-one] cannot be ordered by IC50: greater than 10 µM for the first, greater than 10 µM for the second.

`CN1CCN(c2cc3c(cc2F)c(=O)c(-c2nnc(Cc4ccccc4)o2)cn3Cc2ccc(Cl)cc2)CC1` [Compound 164, 3-(5-benzyl-[1,3,4]oxadiazol-2-yl)-1-(4-chloro-benzyl)-6-fluoro-7-(4-methyl-piperazin-1-yl)-1H-quinolin-4-one] and `CN1CCN(c2cc3c(cc2F)c(=O)c(-c2nnc(Cc4ccccc4)o2)cn3Cc2ccc(C(F)(F)F)cc2F)CC1` [Compound 165, 3-(5-benzyl-[1,3,4]oxadiazol-2-yl)-1-(4-(2-fluoro-4-trifluormethyl)-benzyl)-6-fluoro-7-(4-methyl-piperazin-1-yl)-1H-quinolin-4-one] cannot be ordered by IC50: less than 10 µM for the first, less than 2 µM for the second.

Compared with `CC(C)(c1ccccc1)c1noc(-c2cn(Cc3ccc(C(F)(F)F)cc3)c3cc(N4CCOCC4)c(F)cc3c2=O)n1` [Compound 171, 6-fluoro-7-morpholino-3-(3-(2-phenylpropan-2-yl)-1,2,4-oxadiazol-5-yl)-1-(4-(trifluoromethyl)benzyl)quinolin-4(1H)-one], `O=c1c(-c2ncc(Cc3ccccc3)o2)cn(Cc2ccc(Cl)cc2)c2ccc(OCCCN3CCOCC3)cc12` [Compound 176, 3-(5-benzyl-oxazol-2-yl)-1-(4-chloro-benzyl)-6-(3-morpholin-4-yl-propoxy)-1H-quinolin-4-one] is lower in IC50: greater than 10 µM for the first, less than 10 µM for the second.

With `O=c1c(-c2noc(Cc3ccc(Cl)cc3)n2)cn(Cc2ccc(C(F)(F)F)cc2F)c2c1CNCC2` [Compound 178, 3-[5-(4-chloro-benzyl)-[1,2,4]oxadiazol-3-yl]-1-(2-fluoro-4-trifluoromethyl-benzyl)-5,6,7,8-tetrahydro-1H-[1,6]naphthyridin-4-one] the IC50 was less than 10 µM.
